Assay results taken from US20190055576A1, “USE OF HERBICIDE-TOLERANT PROTEIN” (BEIJING DABEINONG TECHNOLOGY GROUP CO., LTD., priority 2016, published 2019).

Tested on: transgenic maize plants (Zm cytoplasmic/chloroplastic ALT-1-02, ALT-2-02, ALT-3-02)
Experiment: Sulfometuron-methyl tolerance of transgenic maize plants, damage degree by plant growth status
Assay type: in vivo
Conditions: 120 g ai/ha; for Average damage % 3DAT / Average damage % 7DAT / Average damage % 14DAT / Average damage % 21DAT: 4-fold field concentration; for Average damage % 3DAT: 3 days after spraying; for Average damage % 7DAT: 7 days after spraying; for Average damage % 14DAT: 14 days after spraying; for Average damage % 21DAT: 21 days after spraying
Description: The herbicide tolerance effects of Zm cytoplasmic ALT-1-02 maize plants, Zm chloroplastic ALT-1-02 maize plants, Zm cytoplasmic ALT-2-02 maize plants, Zm chloroplastic ALT-2-02 maize plants, Zm cytoplasmic ALT-3-02 maize plants, Zm chloroplastic ALT-3-02 maize plants and wild-type maize plants on Sulfometuron-methyl were detected (at V3-V4 stage), respectively.
Zm cytoplasmic ALT-1-02 maize plants, Zm chloroplastic ALT-1-02 maize plants, Zm cytoplasmic ALT-2-02 maize plants, Zm chloroplastic ALT-2-02 maize plants, Zm cytoplasmic ALT-3-02 maize plants, Zm chloroplastic ALT-3-02 maize plants and wild-type maize plants were respectively taken and sprayed with Sulfometuron-methyl (120 g ai/ha, 4-fold field concentration) and a blank solvent (water). The damage degree caused by the herbicide was measured for each plant according to the plant growth status 3 days after spraying (3 DAT), 7 days after spraying (7 DAT), 14 days after spraying (14 DAT) and 21 days after spraying (21 DAT), respectively: considering a growth status equivalent to that of the untreated plants as having a damage degree of 0%; considering conditions of leaves being partially chlorotic and yellow but substantially not affecting the plant normal growth as having a damage degree of 50%; and considering the whole plant being purple and dying as having a damage degree of 100%. There were 2 strains in Zm cytoplasmic ALT-1-02 maize plants in total (S13 and S14), 2 strains in Zm chloroplastic ALT-1-02 maize plants in total (S15 and S16), 2 strains in Zm cytoplasmic ALT-2-02 maize plants in total (S17 and S18), 2 strains in Zm chloroplastic ALT-2-02 maize plants in total (S19 and S20), 2 strains in Zm cytoplasmic ALT-3-02 maize plants in total (S21 and S22), 2 strains in Zm chloroplastic ALT-3-02 maize plants in total (S23 and S24), and 1 strain in wild-type maize plants (CK2) in total; and 10-15 plants were selected from each strain and tested.

[1] = strain S13 (Zm cytoplasmic ALT-1-02 maize)
[2] = strain S14 (Zm cytoplasmic ALT-1-02 maize)
[3] = strain S15 (Zm chloroplastic ALT-1-02 maize)
[4] = strain S16 (Zm chloroplastic ALT-1-02 maize)
[5] = strain S17 (Zm cytoplasmic ALT-2-02 maize)
[6] = strain S18 (Zm cytoplasmic ALT-2-02 maize)
[7] = strain S19 (Zm chloroplastic ALT-2-02 maize)
[8] = strain S20 (Zm chloroplastic ALT-2-02 maize)
[9] = strain S21 (Zm cytoplasmic ALT-3-02 maize)
[10] = strain S22 (Zm cytoplasmic ALT-3-02 maize)
[11] = strain S23 (Zm chloroplastic ALT-3-02 maize)
[12] = strain S24 (Zm chloroplastic ALT-3-02 maize)

SMILES: COC(=O)c1ccccc1S(=O)(=O)NC(=O)Nc1nc(C)cc(C)n1 [Sulfometuron-methyl, 2-(4,6-dimethylpyrimidine-2-amino-formamido-sulfonyl) methyl benzoate]
- Average damage % 3DAT [1]: 6%
- Average damage % 7DAT [1]: 0%
- Average damage % 14DAT [1]: 0%
- Average damage % 21DAT [1]: 0%
- Average damage % 3DAT [2]: 7%
- Average damage % 7DAT [2]: 0%
- Average damage % 14DAT [2]: 0%
- Average damage % 21DAT [2]: 0%
- Average damage % 3DAT [3]: 0%
- Average damage % 7DAT [3]: 0%
- Average damage % 14DAT [3]: 0%
- Average damage % 21DAT [3]: 0%
- Average damage % 3DAT [4]: 0%
- Average damage % 7DAT [4]: 0%
- Average damage % 14DAT [4]: 0%
- Average damage % 21DAT [4]: 0%
- Average damage % 3DAT [5]: 6%
- Average damage % 7DAT [5]: 0%
- Average damage % 14DAT [5]: 0%
- Average damage % 21DAT [5]: 0%
- Average damage % 3DAT [6]: 5%
- Average damage % 7DAT [6]: 0%
- Average damage % 14DAT [6]: 0%
- Average damage % 21DAT [6]: 0%
- Average damage % 3DAT [7]: 0%
- Average damage % 7DAT [7]: 0%
- Average damage % 14DAT [7]: 0%
- Average damage % 21DAT [7]: 0%
- Average damage % 3DAT [8]: 0%
- Average damage % 7DAT [8]: 0%
- Average damage % 14DAT [8]: 0%
- Average damage % 21DAT [8]: 0%
- Average damage % 3DAT [9]: 5%
- Average damage % 7DAT [9]: 0%
- Average damage % 14DAT [9]: 0%
- Average damage % 21DAT [9]: 0%
- Average damage % 3DAT [10]: 5%
- Average damage % 7DAT [10]: 0%
- Average damage % 14DAT [10]: 0%
- Average damage % 21DAT [10]: 0%
- Average damage % 3DAT [11]: 0%
- Average damage % 7DAT [11]: 0%
- Average damage % 14DAT [11]: 0%
- Average damage % 21DAT [11]: 0%
- Average damage % 3DAT [12]: 0%
- Average damage % 7DAT [12]: 0%
- Average damage % 14DAT [12]: 0%
- Average damage % 21DAT [12]: 0%
- herbicide tolerance conferred by the thifensulfuron hydrolase (ALT-1, ALT-2 and ALT-3) (transgenic maize plants): conferred a high level of Sulfometuron-methyl herbicide tolerance
